Consider nine molecules from US20090081197A1 (Palatin Technologies, Inc., priority 2007, published 2009).

The target in test [1] is T1, MC4-R (Homo sapiens, UniProt P32245). As to the kind of experiment: cAMP agonist stimulation, high receptor density system (10 ng/mL doxycycline).
The nature of test [2]: Penile erection induction in male rats. In kind it is in vivo. As to conditions: rat. The procedure: Penile erection induction. The ability of compounds to induce penile erection (PE) in male rats was evaluated with selected compounds. Male Sprague-Dawley rats weighing 200-250 g were kept on a 12 hour on/off light cycle with food and water ad libitum. All behavioral studies were performed between 10 A.M. and 5 P.M. Groups of 4-8 rats were treated with compounds at a variety of doses via intravenous (IV) or intracerebroventricular (ICV) routes. Immediately after treatment, rats were placed into individual polystyrene cages (27 cm long, 16 cm wide, and 25 cm high) for behavioral observation. […] Controls utilized carrier without the test compound. Mean PEs in control groups were 0.17 to 0.5 PEs/rat by IV administration in various experiments and between 1-2 PEs/rat by ICV administration in various experiments, and thus only PEs with statistically relevant increases over the mean PEs in control groups are reported as inducing PEs. A PE response in IV animals greater than the mean PEs in control groups but less than 1.0 PEs/rat, particularly with less than all animals responding, was treated as equivocal, and not necessarily distinguishable from vehicle control. In selected instances, compounds with equivocal results in the IV model were tested for penile response in an ICV model, and compounds without a statistically relevant increase over the mean PEs in ICV control groups were determined to not induce PEs.

In test [3] the target is T1, MC4-R. The test can be described thus: cAMP agonist stimulation, low receptor density system (0.1 ng/mL doxycycline).
Another test concerns the target MC3-R (Homo sapiens, UniProt P41968). The test can be described thus: Competitive inhibition assay using [I^125]-NDP-α-MSH, hMC3-R membranes. In kind it is binding. The arrangement: expressed in transfected cells. As to conditions: read-out: Inhibition at 1 μM (NDP-α-MSH) In Normal System, MC3-R. The procedure:
(§1) The ligand concentration used was 0.4 nM for MC3-R and MC5-R, 0.2 nM for MC4-R and 0.1 nM for B16-F10 (MC1-R) membranes. In certain experiments, hMC1-R was also employed.
(§2) The assay mixture was incubated for 90 minutes at room temperature, then filtered and the membranes washed three times with ice cold buffer. The filter was dried and counted in a gamma counter for remaining radioactivity bound to the membranes. […] Each assay was conducted in triplicate and the actual mean values are described, with results less than 0% reported as 0%.

In test [4] the target is T1, MC4-R. The test can be described thus: cAMP functional activity assay in HEK-293 cells, normal system. Details: expressed in transfected cells; host or cells: HEK-293. Format: cell-based. The procedure:
General method for EC50 determination in functional activity assay. […] Data analysis and EC50 values were determined using nonlinear regression analysis with Prism Graph-Pad software.
Functional status. The agonist/antagonist status with respect to MC1-R, MC-3R, MC4-R and MC5-R of certain compounds of the invention was determined. Antagonistic activity was determined by measuring the inhibition of α-MSH-induced or NDP-α-MSH-induced cAMP levels following exposure to graded doses of compounds as in the preceding descriptions.
Assay for agonist. Evaluation of the molecules to elicit a functional response in HEK-293 cells expressing MC4-R was accomplished by measuring the accumulation of intracellular cAMP following treatment. Confluent HEK-293 cells expressing MC4-R receptors were detached by enzyme free cell suspension buffer. […] The cells were plated in a 96 well plates at a density of 0.5×10^5 cells per well and pre-incubated for 30 minutes. Test compounds (dissolved in dimethylsulfoxide (DMSO) at a concentration range of 0.05-5000 nM) were added in a total assay volume of 200 μL and cells were incubated for 1 hour at 37° C. The concentration of DMSO was always held at 1% in the assay mixture. NDP-α-MSH was used as the reference agonist. […] Data analysis and EC50 values were determined by using nonlinear regression analysis with Prism Graph-Pad software. […] Compounds with a response ratio of less than 0.1 (10%) were evaluated for antagonistic activity.

Another test deals with T2, MC1-R (Mus musculus, UniProt Q01727).
T2 construct: B-16 mouse melanoma cells (containing MC1-R); endogenous in cells
As to the kind of experiment: Competitive inhibition assay using [I^125]-NDP-α-MSH, B-16 mouse melanoma cell membranes. Format: binding. As to conditions: read-out: Inhibition at 1 μM (NDP-α-MSH) In Normal System, MC1-R. The procedure:
as §1, §2

A further test has as its target MC5-R (Homo sapiens, UniProt P33032). The test can be described thus: Competitive inhibition assay using [I^125]-NDP-α-MSH, hMC5-R membranes. Details: expressed in transfected cells. Format: binding. As to conditions: for inhibition at 1 µM: read-out: Inhibition at 1 μM (NDP-α-MSH) In Normal System, MC5-R. The procedure:
as §1, §2

The target in test [5] is T1, MC4-R. As to the kind of experiment: Competitive inhibition assay using [I^125]-NDP-α-MSH, hMC4-R membranes. Format: binding. Details: host or cells: TREx-293 (HEK-293 stably expressing Tet repressor). As to conditions: for inhibition at 1 µM: read-out: Inhibition at 1 μM (NDP-α-MSH) In Normal System, MC4-R; for Ki: read-out: Ki (nM) (NDP-α-MSH) In Normal System, MC4-R. As to the method:
as §1, §2

Test [6] can be described thus: ICV food intake and body weight change. As to conditions: rat, 1 nmol, 24 hours. In kind it is in vivo. As to the method:
ICV food intake and body weight change. Change in food intake and body weight was evaluated for selected compounds. Rats with indwelling intracerebroventricular cannulas (ICV rats) were obtained from Hilltop Lab Animals, Inc. (Scottdale, Pa.). Animals were individually housed in conventional plexiglass hanging cages and maintained on a controlled 12 hour on/off light cycle. Water and powdered (LabDiet, 5P00 Prolab RMH 3000) or pelleted (Harlan Teklad 2018 18% Protein Rodent Diet) food was provided ad libitum. For 1 week before treatment, 24-hour food intake and body weight change was recorded to assess a baseline for the group during vehicle treatment. The rats were dosed ICV with vehicle or selected compounds (1-3 nmol). The changes in body weight and food intake for the 24 hour period after dosing were determined. The changes in body weight and food intake for the 48 hour and 72 hour periods after dosing were also measured to determine reversal of changes in body weight and food intake effects back to baseline levels.

Where two headings read alike, the source gives them in different places. Positions of bridges follow the written chain, without caps; N, C: chain ends. Non-standard residues stand in square brackets, D forms with d. Residues, ends and D or L forms follow the SMILES beside them. *: point of attachment. Acetyl(2-naphthyl) = O=C(Cc1ccc2ccccc2c1)*; dPhe(4-Cl) = N[C@H](Cc1ccc(Cl)cc1)C(=O)O; 1Nal = N[C@@H](Cc1cccc2ccccc12)C(=O)O; 2Nal = N[C@@H](Cc1ccc2ccccc2c1)C(=O)O; d2Nal = N[C@H](Cc1ccc2ccccc2c1)C(=O)O; Ac6c = NC1(C(=O)O)CCCCC1; Nle = CCCC[C@H](N)C(=O)O

MC5-R, sequence (P33032 whole entry): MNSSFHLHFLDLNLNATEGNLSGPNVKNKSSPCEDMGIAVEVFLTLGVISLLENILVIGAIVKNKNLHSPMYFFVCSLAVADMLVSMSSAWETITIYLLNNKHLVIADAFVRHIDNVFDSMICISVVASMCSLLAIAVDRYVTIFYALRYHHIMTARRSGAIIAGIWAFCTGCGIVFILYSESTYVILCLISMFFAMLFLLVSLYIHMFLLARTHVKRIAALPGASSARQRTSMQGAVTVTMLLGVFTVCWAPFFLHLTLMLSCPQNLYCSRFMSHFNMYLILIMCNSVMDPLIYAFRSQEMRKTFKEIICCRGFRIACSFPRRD
T2 sequence (Q01727 whole entry): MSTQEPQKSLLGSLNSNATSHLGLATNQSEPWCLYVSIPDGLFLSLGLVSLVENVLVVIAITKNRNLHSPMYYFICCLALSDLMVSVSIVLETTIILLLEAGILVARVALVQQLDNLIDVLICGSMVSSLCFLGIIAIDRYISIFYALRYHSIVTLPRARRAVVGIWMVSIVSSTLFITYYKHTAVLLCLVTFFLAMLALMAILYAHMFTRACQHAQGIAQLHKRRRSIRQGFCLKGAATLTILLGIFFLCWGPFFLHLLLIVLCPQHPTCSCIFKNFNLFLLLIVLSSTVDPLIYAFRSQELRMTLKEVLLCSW
T1 sequence (P32245 whole entry): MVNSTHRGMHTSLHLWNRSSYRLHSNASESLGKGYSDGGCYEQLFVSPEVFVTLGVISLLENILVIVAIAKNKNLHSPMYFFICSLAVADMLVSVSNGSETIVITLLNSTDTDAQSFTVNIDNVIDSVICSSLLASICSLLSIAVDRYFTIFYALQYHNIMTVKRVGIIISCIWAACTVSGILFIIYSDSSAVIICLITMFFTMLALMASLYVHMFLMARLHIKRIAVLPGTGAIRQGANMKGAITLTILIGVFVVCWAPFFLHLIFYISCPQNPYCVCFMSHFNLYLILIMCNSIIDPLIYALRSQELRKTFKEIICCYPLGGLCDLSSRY
MC3-R, sequence (P41968 whole entry): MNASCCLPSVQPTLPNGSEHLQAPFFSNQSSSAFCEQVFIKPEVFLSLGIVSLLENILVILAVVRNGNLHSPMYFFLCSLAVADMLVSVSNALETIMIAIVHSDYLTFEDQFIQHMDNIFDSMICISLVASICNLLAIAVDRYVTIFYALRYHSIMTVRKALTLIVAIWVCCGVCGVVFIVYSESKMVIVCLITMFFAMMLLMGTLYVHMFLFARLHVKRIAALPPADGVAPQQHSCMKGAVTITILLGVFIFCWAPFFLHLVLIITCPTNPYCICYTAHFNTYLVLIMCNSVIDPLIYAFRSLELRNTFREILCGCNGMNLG

At MC4-R [1], `C[C@H](NC(=O)[C@H](CCCNC(=N)N)NC(=O)[C@@H](Cc1ccc(Cl)cc1)NC(=O)[C@H](COCc1ccccc1)NC(=O)CCCCCCN)c1cccc2ccccc12` [Example 16, 7′-amino-heptanoyl-Ser(Bzl)-D-Phe(4-Cl)-Arg-S-(−)-1-(1-naphthyl)ethylamide] displayed an EC50 of 180 nM.
Take `CCCC[C@H](NC(C)=O)C(=O)N[C@H]1CC(=O)NCCCC[C@@H](C(=O)O)NC(=O)[C@H](Cc2c[nH]c3ccccc23)NC(=O)[C@H](CCCNC(=N)N)NC(=O)[C@@H](Cc2ccccc2)NC(=O)[C@H](Cc2c[nH]cn2)NC1=O` [PT-141, cyclo 2,7[Ac-Nle-Asp-His-D-Phe-Arg-Trp-Lys]-OH, reference compound]: the “Penile Erection ICV” value in [2] (ICV) is “Yes**”. Moreover, the “Penile Erection IV” value in test [2] (IV) is on record as “Yes**”.
In the case of `CCNC(=O)[C@@H]1CCCCNC(=O)C[C@H](NC(C)=O)C(=O)N[C@@H](Cc2c[nH]cn2)C(=O)N[C@H](Cc2ccccc2)C(=O)N[C@@H](CCCNC(=N)N)C(=O)N[C@@H](Cc2c[nH]c3ccccc23)C(=O)N1` [Example 40, Ac-cyclo(-Asp-His-D-Phe-Arg-Trp-Lys)-NH—CH2—CH3], the EC50 at MC4-R [1] amounted to 0.5 nM; at MC4-R [3] it was 3.1 nM; on MC4-R [4] (normal receptor density system) it was 3 nM. The inhibition at 1 µM came to 65% on MC3-R (1 μM test compound), 96% on MC1-R (1 μM test compound), 16% at MC5-R (1 μM test compound) and 96% on MC4-R [5] (1 μM test compound). Also, the Ki on MC5-R (read-out: Ki (nM) (NDP-α-MSH) In Normal System, MC5-R) was above 1000 nM; at MC4-R [5], 6 nM.
`CCCC[C@H](NC(C)=O)C(=O)N[C@H]1CC(=O)NCCCC[C@@H](C(=O)N(C)C)NC(=O)[C@H](Cc2cccc3ccccc23)NC(=O)[C@H](CCCNC(=N)N)NC(=O)[C@@H](Cc2ccccc2)NC(=O)[C@H](Cc2c[nH]c3ccccc23)NC1=O` [Example 36, Ac-Nle-cyclo(-Asp-Trp-D-Phe-Arg-Nal 1-Lys)-N(CH3)2] (Ac-[Nle]DW[dF]R[1Nal]K-NMe2; lactam 2-7) showed an EC50 at MC4-R [1] of 4 nM. The inhibition at 1 µM at MC3-R (1 μM test compound) was determined as 83%; at MC1-R (1 μM test compound), 71%; on MC5-R (1 μM test compound), 92%; at MC4-R [5] (1 μM test compound), 99%. Also, the Ki at MC4-R [5] was 38 nM.
For the molecule `N=C(N)NCCC[C@H](NC(=O)[C@@H](Cc1ccc(Cl)cc1)NC(=O)C1(NC(=O)Cc2ccc3ccccc3c2)CCCCC1)C(=O)N[C@@H](Cc1c[nH]c2ccccc12)C(N)=O` [Example 24, 2-naphthylacetyl-1-amino-1-cyclohexane-carbonyl-D-Phe(4-Cl)-Arg-Trp-NH2] ({Acetyl(2-naphthyl)}-[Ac6c][dPhe(4-Cl)]RW-NH2), the “Efficacy/Intrinsic Activity” value is “None” on MC4-R [1] (10 ng/mL doxycycline, high receptor density hMC4-R system, NDP-α-MSH maximal cAMP = 1.0) and “None” at MC4-R [3] (0.1 ng/mL doxycycline, low receptor density hMC4-R system, NDP-α-MSH maximal cAMP = 1.0). In addition, the “intrinsic activity at MC4-R in a normal system” value on MC4-R [4] (normal receptor density system, NDP-α-MSH = 1.0) is listed as 0.2. The “functional status at MC4-R in cAMP assay” value at MC4-R [4] (normal system, 1 μM concentration where stated) is “partial agonist (intrinsic activity between 0.1 (10%) and 0.7 (70%) is classified as a partial agonist)”. Moreover, the “decrease in body weight” value in [6] turned out to be 1%. Besides, the “decrease in food intake” value in test [6] came to 21%.
For `CCCC[C@H](NC(C)=O)C(=O)N[C@H]1CC(=O)NCCCC[C@@H](C(=O)NCC)NC(=O)[C@H](Cc2cccc3ccccc23)NC(=O)[C@H](CCCNC(=N)N)NC(=O)[C@@H](Cc2ccccc2)NC(=O)[C@H](Cc2c[nH]c3ccccc23)NC1=O` [Example 38, Ac-Nle-cyclo(-Asp-Trp-D-Phe-Arg-Nal 1-Lys)-NH—CH2—CH3] (Ac-[Nle]DW[dF]R[1Nal]K-NHEt; lactam 2-7), at MC4-R [1], the midpoint of the response, the EC50, lay at 10 nM. For the same molecule, the inhibition at 1 µM came out at 92% at MC3-R (1 μM test compound), 98% at MC1-R (1 μM test compound), 92% on MC5-R (1 μM test compound) and 100% at MC4-R [5] (1 μM test compound). In addition, the Ki at MC4-R [5] came to 9 nM.
For `CCCC[C@H](NC(C)=O)C(=O)N[C@H]1CC(=O)NCCCC[C@@H](C(=O)N(C)C)NC(=O)[C@H](Cc2cccc3ccccc23)NC(=O)[C@H](CCCNC(=N)N)NC(=O)[C@@H](Cc2ccccc2)NC(=O)[C@H](Cc2c[nH]cn2)NC1=O` [Example 37, Ac-Nle-cyclo(-Asp-His-D-Phe-Arg-Nal 1-Lys)-N(CH3)2], the EC50 is 0.6 nM at MC4-R [1] and 2.1 nM at MC4-R [3]. Also, the inhibition at 1 µM on MC3-R (1 μM test compound) stood at 92%; at MC1-R (1 μM test compound) it was 82%; on MC5-R (1 μM test compound), 92%; at MC4-R [5] (1 μM test compound), 100%. Besides, at MC4-R [5], the Ki was determined as 5 nM.
`CCCC[C@H](NC(C)=O)C(=O)N[C@H]1CC(=O)NCCCC[C@@H](C(=O)NCC)NC(=O)[C@H](Cc2cccc3ccccc23)NC(=O)[C@H](CCCNC(=N)N)NC(=O)[C@@H](Cc2ccccc2)NC(=O)[C@H](Cc2c[nH]cn2)NC1=O` [Example 39, Ac-Nle-cyclo(-Asp-His-D-Phe-Arg-Nal 1-Lys)-NH—CH2—CH3]: the EC50 at MC4-R [1] turned out to be 1.1 nM; at MC4-R [3] it was 10 nM. The inhibition at 1 µM at MC3-R (1 μM test compound) is 93%; on MC1-R (1 μM test compound), 100%; at MC5-R (1 μM test compound) it was 93%; on MC4-R [5] (1 μM test compound), 98%. The Ki on MC4-R [5] amounted to 2 nM.
`CNC(=O)[C@@H]1CCCCNC(=O)C[C@H](NC(C)=O)C(=O)N[C@@H](Cc2c[nH]c3ccccc23)C(=O)N[C@H](Cc2ccc3ccccc3c2)C(=O)N[C@@H](CCCNC(=N)N)C(=O)N[C@@H](Cc2ccc3ccccc3c2)C(=O)N1` [Example 35, Ac-cyclo(Asp-Trp-D-Nal 2-Arg-Nal 2-Lys)-NH—CH3] (Ac-DW[d2Nal]R[2Nal]K-NHMe; lactam 1-6): the inhibition at 1 µM at MC3-R was determined as 99%; at MC1-R, 67%; on MC5-R it was 98%; on MC4-R [5], 100%. The “functional status at MC4-R in cAMP assay” value at MC4-R [4] (at 1 nM dose) is “inactive”.
